# Measurements from ChEMBL document CHEMBL3779856, “Synthesis and antiproliferative activity of 6,7-disubstituted-4-phenoxyquinoline derivatives bearing the 2-oxo-4-chloro-1,2-dihydroquinoline-3-carboxamide moiety” (Bioorg Med Chem Lett, 2016).
# pIC50: −log10 of the molar value.
# Test system: HT-29
# Test: cells
# Conditions: Homo sapiens, HT-29, 72 h
# Description: Cytotoxicity against human HT-29 cells assessed as cell growth inhibition after 72 hrs by MTT assay
row,Compound,pIC50
1,COc1cc2c(Oc3ccc(NC(=O)c4c(Cl)c5ccccc5n(-c5ccccc5OC)c4=O)cc3F)ccnc2cc1OCCCN1CCOCC1,5.85
2,COc1cc2c(Oc3ccc(NC(=O)c4c(Cl)c5ccccc5n(-c5ccc(C)cc5)c4=O)cc3F)ccnc2cc1OCCCN1CCN(C)CC1,6.82
3,COc1cc2c(Oc3ccc(NC(=O)c4c(Cl)c5ccccc5n(-c5ccccc5F)c4=O)cc3F)ccnc2cc1OCCCN1CCN(C)CC1,6.77
4,COc1cc2c(Oc3ccc(NC(=O)c4c(Cl)c5ccccc5n(-c5ccccc5)c4=O)cc3F)ccnc2cc1OCCCN1CCOCC1,6.34
5,COc1cc2c(Oc3ccc(NC(=O)c4c(Cl)c5ccccc5n(-c5ccc(C)cc5)c4=O)cc3F)ccnc2cc1OCCCN1CCC(C)CC1,6.72
6,COc1cc2c(Oc3ccc(NC(=O)c4c(Cl)c5ccccc5n(-c5ccccc5OC)c4=O)cc3F)ccnc2cc1OCCCN1CCCCC1,4.90
7,COc1cc2c(Oc3ccc(NC(=O)c4c(Cl)c5ccccc5n(-c5ccccc5OC)c4=O)cc3F)ccnc2cc1OCCCN1CCN(C)CC1,6.28
8,COc1cc2c(Oc3ccc(NC(=O)c4c(Cl)c5ccccc5n(-c5ccccc5OC(F)(F)F)c4=O)cc3F)ccnc2cc1OCCCN1CCC(C)CC1,6.24
9,COc1cc2c(Oc3ccc(NC(=O)c4c(Cl)c5ccccc5n(-c5ccc(C)cc5)c4=O)cc3F)ccnc2cc1OCCCN1CCCC1,6.32
10,COc1cc2c(Oc3ccc(NC(=O)c4c(Cl)c5ccccc5n(-c5ccccc5F)c4=O)cc3F)ccnc2cc1OCCCN1CCOCC1,5.92
11,COc1cc2c(Oc3ccc(NC(=O)c4c(Cl)c5ccccc5n(-c5ccc(C)cc5)c4=O)cc3F)ccnc2cc1OCCCN1CCCCC1,6.28
12,COc1cc2c(Oc3ccc(NC(=O)c4c(Cl)c5ccccc5n(-c5cc(C)cc(C)c5)c4=O)cc3F)ccnc2cc1OCCCN1CCCC1,6.52

# Test system: not listed separately
# Test: cells
# Conditions: Homo sapiens, NCI-H460, 72 h
# Description: Cytotoxicity against human H460 cells assessed as cell growth inhibition after 72 hrs by MTT assay
row,Compound,pIC50
1,COc1cc2c(Oc3ccc(NC(=O)c4c(Cl)c5ccccc5n(-c5ccccc5OC)c4=O)cc3F)ccnc2cc1OCCCN1CCOCC1,5.92
2,COc1cc2c(Oc3ccc(NC(=O)c4c(Cl)c5ccccc5n(-c5ccc(C)cc5)c4=O)cc3F)ccnc2cc1OCCCN1CCN(C)CC1,6.92
3,COc1cc2c(Oc3ccc(NC(=O)c4c(Cl)c5ccccc5n(-c5ccccc5F)c4=O)cc3F)ccnc2cc1OCCCN1CCN(C)CC1,6.57
4,COc1cc2c(Oc3ccc(NC(=O)c4c(Cl)c5ccccc5n(-c5ccccc5)c4=O)cc3F)ccnc2cc1OCCCN1CCOCC1,6.59
5,COc1cc2c(Oc3ccc(NC(=O)c4c(Cl)c5ccccc5n(-c5ccc(C)cc5)c4=O)cc3F)ccnc2cc1OCCCN1CCC(C)CC1,6.74
6,COc1cc2c(Oc3ccc(NC(=O)c4c(Cl)c5ccccc5n(-c5ccccc5OC)c4=O)cc3F)ccnc2cc1OCCCN1CCCCC1,6.24
7,COc1cc2c(Oc3ccc(NC(=O)c4c(Cl)c5ccccc5n(-c5ccccc5OC)c4=O)cc3F)ccnc2cc1OCCCN1CCN(C)CC1,6.82
8,COc1cc2c(Oc3ccc(NC(=O)c4c(Cl)c5ccccc5n(-c5ccccc5OC(F)(F)F)c4=O)cc3F)ccnc2cc1OCCCN1CCC(C)CC1,6.42
9,COc1cc2c(Oc3ccc(NC(=O)c4c(Cl)c5ccccc5n(-c5ccc(C)cc5)c4=O)cc3F)ccnc2cc1OCCCN1CCCC1,6.64
10,COc1cc2c(Oc3ccc(NC(=O)c4c(Cl)c5ccccc5n(-c5ccccc5F)c4=O)cc3F)ccnc2cc1OCCCN1CCOCC1,6.24
11,COc1cc2c(Oc3ccc(NC(=O)c4c(Cl)c5ccccc5n(-c5ccc(C)cc5)c4=O)cc3F)ccnc2cc1OCCCN1CCCCC1,6.77
12,COc1cc2c(Oc3ccc(NC(=O)c4c(Cl)c5ccccc5n(-c5cc(C)cc(C)c5)c4=O)cc3F)ccnc2cc1OCCCN1CCCC1,6.21

# Test system: not listed separately
# Test: cells
# Conditions: Homo sapiens, MKN-45, 72 h
# Description: Cytotoxicity against human MKN45 cells assessed as cell growth inhibition after 72 hrs by MTT assay
row,Compound,pIC50
1,COc1cc2c(Oc3ccc(NC(=O)c4c(Cl)c5ccccc5n(-c5ccccc5OC)c4=O)cc3F)ccnc2cc1OCCCN1CCOCC1,5.90
2,COc1cc2c(Oc3ccc(NC(=O)c4c(Cl)c5ccccc5n(-c5ccc(C)cc5)c4=O)cc3F)ccnc2cc1OCCCN1CCN(C)CC1,6.92
3,COc1cc2c(Oc3ccc(NC(=O)c4c(Cl)c5ccccc5n(-c5ccccc5F)c4=O)cc3F)ccnc2cc1OCCCN1CCN(C)CC1,6.39
4,COc1cc2c(Oc3ccc(NC(=O)c4c(Cl)c5ccccc5n(-c5ccccc5)c4=O)cc3F)ccnc2cc1OCCCN1CCOCC1,6.51
5,COc1cc2c(Oc3ccc(NC(=O)c4c(Cl)c5ccccc5n(-c5ccc(C)cc5)c4=O)cc3F)ccnc2cc1OCCCN1CCC(C)CC1,6.92
6,COc1cc2c(Oc3ccc(NC(=O)c4c(Cl)c5ccccc5n(-c5ccccc5OC)c4=O)cc3F)ccnc2cc1OCCCN1CCCCC1,6.38
7,COc1cc2c(Oc3ccc(NC(=O)c4c(Cl)c5ccccc5n(-c5ccccc5OC)c4=O)cc3F)ccnc2cc1OCCCN1CCN(C)CC1,6.92
8,COc1cc2c(Oc3ccc(NC(=O)c4c(Cl)c5ccccc5n(-c5ccccc5OC(F)(F)F)c4=O)cc3F)ccnc2cc1OCCCN1CCC(C)CC1,6.51
9,COc1cc2c(Oc3ccc(NC(=O)c4c(Cl)c5ccccc5n(-c5ccc(C)cc5)c4=O)cc3F)ccnc2cc1OCCCN1CCCC1,6.05
10,COc1cc2c(Oc3ccc(NC(=O)c4c(Cl)c5ccccc5n(-c5ccccc5F)c4=O)cc3F)ccnc2cc1OCCCN1CCOCC1,6.13
11,COc1cc2c(Oc3ccc(NC(=O)c4c(Cl)c5ccccc5n(-c5ccc(C)cc5)c4=O)cc3F)ccnc2cc1OCCCN1CCCCC1,6.32
12,COc1cc2c(Oc3ccc(NC(=O)c4c(Cl)c5ccccc5n(-c5cc(C)cc(C)c5)c4=O)cc3F)ccnc2cc1OCCCN1CCCC1,5.92

# Test system: not listed separately
# Test: Cytotoxicity against human U87MG cells assessed as cell growth inhibition after 72 hrs by MTT assay
# Type: functional, cell-based, U-87MG ATCC
# Conditions: U-87 MG
row,Compound,pIC50
1,COc1cc2c(Oc3ccc(NC(=O)c4c(Cl)c5ccccc5n(-c5ccc(C)cc5)c4=O)cc3F)ccnc2cc1OCCCN1CCN(C)CC1,5.97
2,COc1cc2c(Oc3ccc(NC(=O)c4c(Cl)c5ccccc5n(-c5ccccc5F)c4=O)cc3F)ccnc2cc1OCCCN1CCN(C)CC1,5.88
3,COc1cc2c(Oc3ccc(NC(=O)c4c(Cl)c5ccccc5n(-c5ccccc5)c4=O)cc3F)ccnc2cc1OCCCN1CCOCC1,5.32
4,COc1cc2c(Oc3ccc(NC(=O)c4c(Cl)c5ccccc5n(-c5ccc(C)cc5)c4=O)cc3F)ccnc2cc1OCCCN1CCC(C)CC1,5.49
5,COc1cc2c(Oc3ccc(NC(=O)c4c(Cl)c5ccccc5n(-c5ccc(C)cc5)c4=O)cc3F)ccnc2cc1OCCCN1CCCC1,5.49

# Test system: A549
# Test: Cytotoxicity against human A549 cells assessed as cell growth inhibition after 72 hrs by MTT assay
# Type: functional, cell-based
# Conditions: A549, 72 h
row,Compound,pIC50
1,COc1cc2c(Oc3ccc(NC(=O)c4c(Cl)c5ccccc5n(-c5ccc(C)cc5)c4=O)cc3F)ccnc2cc1OCCCN1CCN(C)CC1,6.51
2,COc1cc2c(Oc3ccc(NC(=O)c4c(Cl)c5ccccc5n(-c5ccccc5F)c4=O)cc3F)ccnc2cc1OCCCN1CCN(C)CC1,6.54
3,COc1cc2c(Oc3ccc(NC(=O)c4c(Cl)c5ccccc5n(-c5ccccc5)c4=O)cc3F)ccnc2cc1OCCCN1CCOCC1,6.03
4,COc1cc2c(Oc3ccc(NC(=O)c4c(Cl)c5ccccc5n(-c5ccc(C)cc5)c4=O)cc3F)ccnc2cc1OCCCN1CCC(C)CC1,6.46
5,COc1cc2c(Oc3ccc(NC(=O)c4c(Cl)c5ccccc5n(-c5ccc(C)cc5)c4=O)cc3F)ccnc2cc1OCCCN1CCCC1,6.64
